In the supplement of paper PMC10627819:

What was measured:
S. pneumoniae D39V [1] = test: Bliss interaction score (quartile over a dose matrix) (fitness difference); higher = more antagonism (negative = synergy)
In short: (§1)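 Fitness was derived from optical density at entry into stationary phase, divided by the robust mean of the no-drug wells on the same plate. That reading was taken as OD595, and the ratio was capped at 1. Single-drug fitness was inferred from the combination data. The Bliss score, observed fitness minus the expected product of single-drug fitness, was summarised as quartiles over technical, biological and donor/recipient replicates.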

B. subtilis 168 [2] = test: as above
In short: as §1

S. aureus DSM 20231 [3] = test: as above
In short: as §1

S. aureus Newman [4] = test: as above
In short: as §1

S. pneumoniae D39V [5] = test: fitness (endpoint OD595 vs no drug) (fraction); higher = more growth
In short: (§2)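 Volumes were 30 µl per well, or 55 µl for S. pneumoniae, in 384-well plates inoculated at OD595 0.01. Media were TSB, LB Lennox or CY at 37 °C, and OD595 was read every 30 min for 14 h with first-reading background subtraction. Fitness is the ratio of optical density at stationary-phase entry to the robust mean of no-drug controls. That ratio is capped at 1.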

B. subtilis 168 [6] = test: as above
In short: as §2

S. aureus DSM 20231 [7] = test: as above
In short: as §2

S. aureus Newman [8] = test: as above
In short: as §2
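Throughout, for Bliss interaction score (quartile over a dose matrix): first quartile when negative (synergy) and third quartile when positive (antagonism).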

COc1c(N2C[C@@H]3CCCN[C@@H]3C2)c(F)cc2c(=O)c(C(=O)O)cn(C3CC3)c12 [Moxifloxacin] + COc1ccc(C[C@H](N)C(=O)N[C@H]2[C@@H](O)[C@H](n3cnc4c(N(C)C)ncnc43)O[C@@H]2CO)cc1 [Puromycin]
Settings	Bliss interaction score
B. subtilis 168 [2]	-0.0157
S. aureus DSM 20231 [3]	-0.0292
S. aureus Newman [4]	0.0443
S. pneumoniae D39V [1]	0.101

one replicate
Settings	fitness
S. aureus DSM 20231 [7], first compound 0.0075 µg/mL, partner 3.12 µg/mL	0.779
S. aureus DSM 20231 [7], first compound 0.0075 µg/mL, partner 6.24 µg/mL	0.642
S. aureus DSM 20231 [7], first compound 0.015 µg/mL, partner 3.12 µg/mL	0.787
S. aureus DSM 20231 [7], first compound 0.015 µg/mL, partner 6.24 µg/mL	0.509
S. aureus DSM 20231 [7], first compound 0.03 µg/mL, partner 3.12 µg/mL	0.754
S. aureus DSM 20231 [7], first compound 0.03 µg/mL, partner 6.24 µg/mL	0.547
S. aureus DSM 20231 [7], first compound 0.06 µg/mL, partner 0.39 µg/mL	0.676
S. aureus DSM 20231 [7], first compound 0.06 µg/mL, partner 0.78 µg/mL	0.7
S. aureus DSM 20231 [7], first compound 0.06 µg/mL, partner 1.56 µg/mL	0.687
S. aureus DSM 20231 [7], first compound 0.12 µg/mL, partner 0.39 µg/mL	0.48
S. aureus DSM 20231 [7], first compound 0.12 µg/mL, partner 0.78 µg/mL	0.482
S. aureus DSM 20231 [7], first compound 0.12 µg/mL, partner 1.56 µg/mL	0.558
S. pneumoniae D39V [5], first compound 0.0037 µg/mL, partner 1 µg/mL	0.502
S. pneumoniae D39V [5], first compound 0.0037 µg/mL, partner 2 µg/mL	0.431
S. pneumoniae D39V [5], first compound 0.0037 µg/mL, partner 4 µg/mL	0.342
S. pneumoniae D39V [5], first compound 0.0075 µg/mL, partner 1 µg/mL	0.846
S. pneumoniae D39V [5], first compound 0.0075 µg/mL, partner 2 µg/mL	0.82
S. pneumoniae D39V [5], first compound 0.0075 µg/mL, partner 4 µg/mL	0.77
S. pneumoniae D39V [5], first compound 0.015 µg/mL, partner 1 µg/mL	0.935
S. pneumoniae D39V [5], first compound 0.015 µg/mL, partner 2 µg/mL	0.798
S. pneumoniae D39V [5], first compound 0.015 µg/mL, partner 4 µg/mL	0.763

fitness
Settings	partner 0.39 µg/mL	partner 0.78 µg/mL	partner 1 µg/mL	partner 1.56 µg/mL	partner 2 µg/mL	partner 4 µg/mL
B. subtilis 168 [6], first compound 0.0312 µg/mL	0.0423	0.0567	–	0.053	–	–
B. subtilis 168 [6], first compound 0.0625 µg/mL	0.0666	0.0602	–	0.0585	–	–
B. subtilis 168 [6], first compound 0.125 µg/mL	0.0451	0.045	–	0.0653	–	–
B. subtilis 168 [6], first compound 2 µg/mL	0.0227	0.028	–	0.0306	–	–
B. subtilis 168 [6], first compound 4 µg/mL	0.021	0.0248	–	0.0303	–	–
B. subtilis 168 [6], first compound 8 µg/mL	0.009	0.0168	–	0.0189	–	–
S. aureus DSM 20231 [7], first compound 0.0075 µg/mL	0.885	0.928	–	0.861	–	–
S. aureus DSM 20231 [7], first compound 0.015 µg/mL	0.789	0.846	–	0.802	–	–
S. aureus DSM 20231 [7], first compound 0.03 µg/mL	0.681	0.695	–	0.668	–	–
S. aureus Newman [8], first compound 0.0075 µg/mL	0.797	0.757	–	0.817	–	–
S. aureus Newman [8], first compound 0.015 µg/mL	0.673	0.657	–	0.658	–	–
S. aureus Newman [8], first compound 0.03 µg/mL	0.119	0.161	–	0.282	–	–
S. pneumoniae D39V [5], first compound 0.005 µg/mL	–	–	≥ 1	–	≥ 1	0.885
S. pneumoniae D39V [5], first compound 0.01 µg/mL	–	–	≥ 1	–	0.982	0.88
S. pneumoniae D39V [5], first compound 0.02 µg/mL	–	–	1	–	0.985	0.88
